pIC50: −log10 of the molar value.
test system: Aβ42 release; test: Aβ release in cells stably expressing APPswe, Meso Scale Discovery electrochemiluminescence assay; format: cell-based, Human; conditions: Homo sapiens, SH-SY5Y, HEK or SH-SY5Y cells stably expressing APPswe, 4-6 hours incubation with test compound
Method: The level of activity of the compounds on Aβ release was tested using the following method:
Compounds were diluted in 100% DMSO and stored at […] prior to use. Human Embryonic Kidney (HEK) or Human Neuroblastoma (SH-SY5Y) cell lines stably expressing APP with the Swedish mutation (APPswe) were cultured using Dulbecco's Modified Eagles medium (DMEM) supplied with […] glucose, Na-pyruvate and GlutaMAX with 10% FBS, 100 U/ml penicillin-streptomycin (PEST) respectively, 1× non-essential amino acids (NEAA), […] Hepes, 100 μg/ml Zeocine. Cells at about 80% confluence were washed with PBS, detached from culture flasks using 1× Trypsin/EDTA diluted in PBS, re-suspended in cell media and plated in 384-well poly-d-lysine coated cell culture plates at about 10000-15000 cells/well, in 25 μL cell media. Optionally, cryo-preserved cells (frozen and stored at −140° C. in 90% cell media and 10% DMSO) were thawed, washed and plated as above. Next the cells were incubated for 15-24 h at 37° C. and 5% CO2, after which cell medium was changed. Fresh medium containing test compound diluted ×200 from prepared compound plate was added to the cells before further incubation for 4-6 hours at 37° C. and 5% CO2. After incubation with test compound the amount of Aβ peptides, including Aβ42, Aβ40, Aβ39, Aβ38 and Aβ37, secreted to the cell medium was analyzed using the electrochemiluminescence assay technology from Meso Scale Discovery Technology, in combination with specific antibodies raised against the different Aβ peptides. Potential cytotoxic effects of the compounds were usually assayed by measuring the ATP content (ViaLight) from cell lysate.

`COc1cc(Nc2nc3c(c(Nc4ccccc4)n2)CN(CCO)CC3)ccc1-n1cnc(C)c1` [Example 8, 2-(2-(3-Methoxy-4-(4-methyl-1H-imidazol-1-yl)phenylamino)-4-(phenylamino)-7,8-dihydropyrido[4,3-d]pyrimidin-6(5H)-yl)ethanol] was tested. Which pIC50 did it give?
Its pIC50 is 7.10.

How did the pIC50 turn out when `Cc1nccn1-c1ccc(Nc2nc3c(c(NC4CCCCC4)n2)CN(C)CC3)cc1` [Example 69, N4-Cyclohexyl-6-methyl-N2-(4-(2-methyl-1H-imidazol-1-yl)phenyl)-5,6,7,8-tetrahydropyrido[4,3-d]pyrimidine-2,4-diamine] was run?
Its pIC50 is 6.40.

`Cc1ccc(Cc2nc(Nc3ccc(-n4ccnc4C)cc3)nc3c2CN(C)CC3)cc1` [Example 50, 6-Methyl-N-(4-(2-methyl-1H-imidazol-1-yl)phenyl)-4-(4-methylbenzyl)-5,6,7,8-tetrahydropyrido[4,3-d]pyrimidin-2-amine] was tested. Which pIC50 did it give?
The pIC50 was 6.60.

How did the pIC50 turn out when `Cc1nccn1-c1ccc(Nc2nc3c(c(NCC4CCOCC4)n2)CN(C)CC3)cc1` [Example 79, 6-Methyl-N2-(4-(2-methyl-1H-imidazol-1-yl)phenyl)-N4-((tetrahydro-2H-pyran-4-yl)methyl)-5,6,7,8-tetrahydropyrido[4,3-d]pyrimidine-2,4-diamine] was run?
The pIC50 was 5.90.

`CC(=O)N1CCc2nc(Nc3ccc(-c4cnco4)cc3)nc(N3CCCCC3CO)c2C1` (stereo not drawn) [Example 94, 1-(4-(2-(Hydroxymethyl)piperidin-1-yl)-2-(4-(oxazol-5-yl)phenylamino)-7,8-dihydropyrido[4,3-d]pyrimidin-6(5H)-yl)ethanone] was tested. Which pIC50 did it give?
Its pIC50 is 5.30.

`CC(=O)c1cccc(Nc2nc(Nc3ccc(-c4cnco4)cc3)nc3c2CN(C(C)=O)CC3)c1` [Example 33, 1-(3-(6-Acetyl-2-(4-(oxazol-5-yl)phenylamino)-5,6,7,8-tetrahydropyrido[4,3-d]pyrimidin-4-ylamino)phenyl)ethanone] was tested. Which pIC50 did it give?
Its pIC50 is 5.90.

With `COc1cccc(Cc2nc(Nc3ccc(-n4cnc(C)c4)c(OC)c3)nc3c2COCC3)c1` [Example 100, N-(3-Methoxy-4-(4-methyl-1H-imidazol-1-yl)phenyl)-4-(3-methoxybenzyl)-7,8-dihydro-5H-pyrano[4,3-d]pyrimidin-2-amine] as the compound, how does the pIC50 read?
The pIC50 was 7.00.

With `Cc1nccn1-c1ccc(Nc2nc3c(c(Cc4ccc(F)cc4)n2)C[S+]([O-])CC3)cc1` (stereo not drawn) [Example 64, 4-(4-Fluorobenzyl)-N-[4-(2-methyl-1H-imidazol-1-yl)phenyl]-7,8-dihydro-5H-thiopyrano[4,3-d]pyrimidin-2-amine 6-oxide] as the compound, how does the pIC50 read?
Its pIC50 is 6.00.

With `CN1CCc2nc(Nc3ccc(-c4cnco4)cc3)nc(NC[C@H]3CCCO3)c2C1` [Example 84, (R)-6-Methyl-N2-(4-(oxazol-5-yl)phenyl)-N4-((tetrahydrofuran-2-yl)methyl)-5,6,7,8-tetrahydropyrido[4,3-d]pyrimidine-2,4-diamine] as the compound, how does the pIC50 read?
The pIC50 was 6.80.

`CC(=O)N1CCc2nc(Nc3ccc(-c4cnco4)cc3)nc(N(C)Cc3ccccn3)c2C1` [Example 92, 1-(4-(Methyl(pyridin-2-ylmethyl)amino)-2-(4-(oxazol-5-yl)phenylamino)-7,8-dihydropyrido[4,3-d]pyrimidin-6(5H)-yl)ethanone] was tested. Which pIC50 did it give?
Its pIC50 is 5.30.

With `COc1cc(Nc2nc3c(c(CCC4CCCO4)n2)COCC3)ccc1-n1cnc(C)c1` (stereo not drawn) [Example 102, N-(3-Methoxy-4-(4-methyl-1H-imidazol-1-yl)phenyl)-4-(2-(tetrahydrofuran-2-yl)ethyl)-7,8-dihydro-5H-pyrano[4,3-d]pyrimidin-2-amine] as the compound, how does the pIC50 read?
The pIC50 was 6.90.

With `OCCN(c1ccccc1)c1nc(Nc2ccc(-c3cnco3)cc2)nc2c1CNCC2` [Example 1, 2-((2-(4-(Oxazol-5-yl)phenylamino)-5,6,7,8-tetrahydropyrido[4,3-d]pyrimidin-4-yl)(phenyl)amino)ethanol] as the compound, how does the pIC50 read?
The pIC50 was 6.00.

With `CC(=O)N1CCc2nc(Nc3ccc(-c4cnco4)cc3)nc(N(CCO)c3ccccc3)c2C1` [Example 28, 1-(4-((2-Hydroxyethyl)(phenyl)amino)-2-(4-(oxazol-5-yl)phenylamino)-7,8-dihydropyrido[4,3-d]pyrimidin-6(5H)-yl)ethanone] as the compound, how does the pIC50 read?
Its pIC50 is 6.10.

With `COc1cc(Nc2nc3c(c(Cc4ccccc4)n2)COCC3)ccc1-n1cnc(C)c1` [Example 43, 4-Benzyl-N-(3-methoxy-4-(4-methyl-1H-imidazol-1-yl)phenyl)-7,8-dihydro-5H-pyrano[4,3-d]pyrimidin-2-amine] as the compound, how does the pIC50 read?
The pIC50 was 7.20.

With `CC(=O)N1CCc2nc(Nc3ccc(-c4cnco4)cc3)nc(N(CCO)Cc3ccccc3)c2C1` [Example 32, 1-(4-(Benzyl(2-hydroxyethyl)amino)-2-(4-(oxazol-5-yl)phenylamino)-7,8-dihydropyrido[4,3-d]pyrimidin-6(5H)-yl)ethanone] as the compound, how does the pIC50 read?
The pIC50 was 6.10.

How did the pIC50 turn out when `CC(=O)N1CCc2nc(Nc3ccc(-c4cnco4)cc3)nc(N(CCC#N)C3CC3)c2C1` [Example 31, 3-((6-Acetyl-2-(4-(oxazol-5-yl)phenylamino)-5,6,7,8-tetrahydropyrido[4,3-d]pyrimidin-4-yl)(cyclopropyl)amino)propanenitrile] was run?
Its pIC50 is 6.10.

With `COc1cc(Nc2nc(CCC3CCCO3)c3c(n2)CCN(C(C)=O)C3)ccc1-n1cnc(C)c1` (stereo not drawn) [Example 111, 1-(2-(3-Methoxy-4-(4-methyl-1H-imidazol-1-yl)phenylamino)-4-(2-(tetrahydrofuran-2-yl)ethyl)-7,8-dihydropyrido[4,3-d]pyrimidin-6(5H)-yl)ethanone] as the compound, how does the pIC50 read?
The pIC50 was 6.60.

`Cc1nccn1-c1ccc(Nc2nc(CCc3cccc(F)c3)c3c(n2)CCN(CCO)C3)cc1` [Example 49, 2-(4-(3-Fluorophenethyl)-2-(4-(2-methyl-1H-imidazol-1-yl)phenylamino)-7,8-dihydropyrido[4,3-d]pyrimidin-6(5H)-yl)ethanol] was tested. Which pIC50 did it give?
Its pIC50 is 6.60.

With `COc1cc(Nc2nc3c(c(Nc4ccccc4)n2)CNCC3)ccc1-n1cnc(C)c1` [Example 7, N2-(3-Methoxy-4-(4-methyl-1H-imidazol-1-yl)phenyl)-N4-phenyl-5,6,7,8-tetrahydropyrido[4,3-d]pyrimidine-2,4-diamine] as the compound, how does the pIC50 read?
Its pIC50 is 7.00.

How did the pIC50 turn out when `COc1cccc(Cc2nc(Nc3ccc(-n4ccnc4C)cc3)nc3c2CN(C)CC3)c1` [Example 53, 4-(3-Methoxybenzyl)-6-methyl-N-(4-(2-methyl-1H-imidazol-1-yl)phenyl)-5,6,7,8-tetrahydropyrido[4,3-d]pyrimidin-2-amine] was run?
Its pIC50 is 6.50.

How did the pIC50 turn out when `CC(=O)N1CCc2nc(Nc3ccc(-c4cnco4)cc3)nc(NC[C@@H]3CCCO3)c2C1` [Example 27, (S)-1-(2-(4-(Oxazol-5-yl)phenylamino)-4-((tetrahydrofuran-2-yl)methylamino)-7,8-dihydropyrido[4,3-d]pyrimidin-6(5H)-yl)ethanone] was run?
The pIC50 was 6.50.

With `CC(=O)N1CCc2nc(Nc3ccc(-n4ccnc4C)cc3)nc(CCc3cccc(F)c3)c2C1` [Example 60, 1-(4-(3-Fluorophenethyl)-2-(4-(2-methyl-1H-imidazol-1-yl)phenylamino)-7,8-dihydropyrido[4,3-d]pyrimidin-6(5H)-yl)ethanone] as the compound, how does the pIC50 read?
The pIC50 was 6.30.

`CC(=O)N1CCc2nc(Nc3ccc(-c4cnco4)cc3)nc(N(C)C3CCCCC3)c2C1` [Example 88, 1-(4-(Cyclohexyl(methyl)amino)-2-(4-(oxazol-5-yl)phenylamino)-7,8-dihydropyrido[4,3-d]pyrimidin-6(5H)-yl)ethanone] was tested. Which pIC50 did it give?
Its pIC50 is 6.40.

How did the pIC50 turn out when `CCN(CC1CCCO1)c1nc(Nc2ccc(-c3cnco3)cc2)nc2c1CN(CCO)CC2` (stereo not drawn) [Example 81, 2-(4-(Ethyl((tetrahydrofuran-2-yl)methyl)amino)-2-(4-(oxazol-5-yl)phenylamino)-7,8-dihydropyrido[4,3-d]pyrimidin-6(5H)-yl)ethanol] was run?
Its pIC50 is 6.60.
